# Reference: US12060438B2, “Cyclic peptide compounds and methods of use thereof” (MODULATION THERAPEUTICS, INC., priority 2018, dated 2024)
# Entries after “also recorded” stand apart in the source; their conditions may differ. Starred links: 1 amine or outer side, 2 acyl side, 3 side chain; linkers in the order of their positions; H or OH if unused. Positions of bridges follow the written chain, without caps; N, C: chain ends. Non-standard residues stand in square brackets, D forms with d. Residues, ends and D or L forms follow the SMILES beside them. *: point of attachment. dProlinol(O-CH2CO) = O=C(COC[C@H]1CCCN1[*:1])[*:2]; N(2-Aminoethyl)Gly = O=C(CN(CCN[*:3])[*:1])[*:2]; X1 = N[C@@H](CS)C(=O)NCCCS(=O)(=O)*; Nle = CCCC[C@H](N)C(=O)O
# System: U266 myeloma cell line
# Assay: Cell death in U266 myeloma cell line (Dapi dead / Fluo-4 live staining, imaging)
# Assay type: cell-based
# Conditions: Dapi for dead cells, Fluo-4 for live cells, imaged at 6 hours, n=3, compared with Compound A (FIG. 1)
# Method: Compound 2 was tested alongside Compound A and cell death was measured in a U266 myeloma cell line. Dapi staining was used for detection of dead cells and Fluo-4 was used for staining live cells. Cells were then imaged at 6 hours using a Cytation 5 Biotek imaging plate reader.
compound,measurement,value
CCCC[C@@H]1NC(=O)CN(S(=O)(=O)CCCNC(=O)[C@@H](N)CS)CCNC(=O)[C@H](CCCCN)NC(=O)[C@H](CC(C)C)NC(=O)[C@H](CCCCN)NC(=O)[C@H](CC(C)C)NC(=O)[C@H](CCCCN)NC(=O)COC[C@H]2CCCN2C(=O)[C@H](Cc2c[nH]c3ccccc23)NC(=O)[C@H](C)NC(=O)[C@H](C(C)C)NC(=O)[C@H](C(C)C)NC1=O [Compound 2] (X1-[N(2-Aminoethyl)Gly][Nle]VVAW[dProlinol(O-CH2CO)]KLKLK; lactam 1-C),potency (cell death),increased potency relative to Compound A; also recorded: more potency compared to Compound A
